Values after ≈ are worked out from the molar mass of the structure shown.
Assays:
Assay type in all cases: cell-based
[1] = system: Proteus mirabilis IFO 3849; assay: Antibacterial activity, agar-dilution MIC, organism No. 19; details: Proteus mirabilis, IFO3849; Organism No. 19, bouillon-agar; read-out: Minimum Inhibitory Concentration
Summary of the method: (§1)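 Values come from agar-dilution plates prepared with bouillon agar; they represent the least specimen concentration (μg/ml of medium) giving inhibition.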

[2] = system: Proteus rettgeri IFO 3850; assay: Antibacterial activity, agar-dilution MIC, organism No. 22; details: Providencia rettgeri, IFO3850; Organism No. 22, bouillon-agar; read-out: Minimum Inhibitory Concentration
Summary of the method: as §1

[3] = system: Bacillus subtilis ATCC 6633; assay: Antibacterial activity, agar-dilution MIC, organism No. 14; details: Bacillus subtilis, ATCC6633; Organism No. 14, bouillon-agar; read-out: Minimum Inhibitory Concentration
Summary of the method: as §1

[4] = system: Salmonella shottmuelleri 8006; assay: Antibacterial activity, agar-dilution MIC, organism No. 11; details: Salmonella, 8006; Organism No. 11, bouillon-agar; read-out: Minimum Inhibitory Concentration
Summary of the method: as §1

[5] = system: Escherichia coli K12 C600 IAM 1264; assay: Antibacterial activity, agar-dilution MIC, organism No. 6; details: Escherichia coli, IAM1264; Organism No. 6, bouillon-agar; read-out: Minimum Inhibitory Concentration
Summary of the method: as §1

[6] = system: Pseudomonas aeruginosa PAO 1; assay: Antibacterial activity, agar-dilution MIC, organism No. 17; details: Pseudomonas aeruginosa, PAO1; Organism No. 17, bouillon-agar; read-out: Minimum Inhibitory Concentration
Summary of the method: as §1

[7] = system: Streptococcus faecium IFO 3826; assay: Antibacterial activity, agar-dilution MIC, organism No. 27; details: Enterococcus faecium, IFO3826; Organism No. 27, bouillon-agar; read-out: Minimum Inhibitory Concentration
Summary of the method: as §1

[8] = system: Salmonella typhimurium IID 971; assay: Antibacterial activity, agar-dilution MIC, organism No. 8; details: Salmonella enterica; Organism No. 8, bouillon-agar; read-out: Minimum Inhibitory Concentration
Summary of the method: as §1

[9] = system: Proteus morganii IFO 3848; assay: Antibacterial activity, agar-dilution MIC, organism No. 18; details: Morganella morganii, IFO3848; Organism No. 18, bouillon-agar; read-out: Minimum Inhibitory Concentration
Summary of the method: as §1

[10] = system: Aspergillus niger IFO 6342; assay: Antifungal activity, agar-dilution MIC, organism No. 30; details: Aspergillus niger, IFO6342; Organism No. 30, bouillon-agar; read-out: Minimum Inhibitory Concentration
Summary of the method: as §1

[11] = system: Staphylococcus aureus Terajima; assay: Antibacterial activity, agar-dilution MIC, organism No. 2; details: Staphylococcus aureus; Organism No. 2, bouillon-agar; read-out: Minimum Inhibitory Concentration
Summary of the method: as §1

[12] = system: Mycoplasma pneumoniae IID817; assay: Antimycoplasmal activity, MIC by phenol red colour change, organism No. 28; details: Mycoplasma, IID817; Organism No. 28, PPLO broth + 1% glucose, 37° C.; read-out: Minimum Inhibitory Concentration (MIC)
Procedure: Mycoplasma pneumoniae IID817 was used as the test microorganism in a culture medium prepared by adding 1% of glucose to "PPLO broth (manufactured by Difco Co.) liquid culture medium" at 37° C. with phenol red as an indicator, thereby culturing the test microorganism.

[13] = system: Salmonella paratyphi-A 1015; assay: Antibacterial activity, agar-dilution MIC, organism No. 10; details: Salmonella enterica, PARATYPHI, read-out: Minimum Inhibitory Concentration
Summary of the method: as §1

[14] = system: Staphylococcus aureus FDA 209PJc-1; assay: Antibacterial activity, agar-dilution MIC, organism No. 1; details: Staphylococcus aureus, FDA209PJC1; Organism No. 1, bouillon-agar; read-out: Minimum Inhibitory Concentration
Summary of the method: as §1

[15] = system: Pseudomonas aeruginosa NCTC 10490; assay: Antibacterial activity, agar-dilution MIC, organism No. 16; details: Pseudomonas aeruginosa, NCTC10490; Organism No. 16, bouillon-agar; read-out: Minimum Inhibitory Concentration
Summary of the method: as §1

[16] = system: Klebsiella pneumoniae PCI-602; assay: Antibacterial activity, agar-dilution MIC, organism No. 7; details: Klebsiella pneumoniae, PCI602; Organism No. 7, bouillon-agar; read-out: Minimum Inhibitory Concentration
Summary of the method: as §1

[17] = system: Staphylococcus aureus MS 353; assay: Antibacterial activity, agar-dilution MIC, organism No. 3; details: Staphylococcus aureus, MS353; Organism No. 3, bouillon-agar; read-out: Minimum Inhibitory Concentration
Summary of the method: as §1

Proteus vulgaris OX-19 = assay: Antibacterial activity, agar-dilution MIC, organism No. 20; details: Proteus vulgaris, OX19; Organism No. 20, bouillon-agar; read-out: Minimum Inhibitory Concentration
Summary of the method: as §1

[18] = system: Enterobacter aerogenes ATCC 13048; assay: Antibacterial activity, agar-dilution MIC, organism No. 23; details: Klebsiella aerogenes, ATCC13048; Organism No. 23, bouillon-agar; read-out: Minimum Inhibitory Concentration
Summary of the method: as §1

Salmonella typhi 901 = assay: Antibacterial activity, agar-dilution MIC, organism No. 9; details: Salmonella enterica, TYPHI, read-out: Minimum Inhibitory Concentration
Summary of the method: as §1

[19] = system: Pseudomonas aeruginosa IFO 3445; assay: Antibacterial activity, agar-dilution MIC, organism No. 15; details: Pseudomonas aeruginosa, IFO3445; Organism No. 15, bouillon-agar; read-out: Minimum Inhibitory Concentration
Summary of the method: as §1

[20] = system: Micrococcus luteus ATCC 9341; assay: Antibacterial activity, agar-dilution MIC, organism No. 25; details: Micrococcus luteus, ATCC9341; Organism No. 25, bouillon-agar; read-out: Minimum Inhibitory Concentration
Summary of the method: as §1

[21] = system: Serratia marcescens IAM 1184; assay: Antibacterial activity, agar-dilution MIC, organism No. 13; details: Serratia marcescens, IAM1184; Organism No. 13, bouillon-agar; read-out: Minimum Inhibitory Concentration
Summary of the method: as §1

Proteus vulgaris HX-19 = assay: Antibacterial activity, agar-dilution MIC, organism No. 21; details: Proteus vulgaris, HX19; Organism No. 21, bouillon-agar; read-out: Minimum Inhibitory Concentration
Summary of the method: as §1

[22] = system: Streptococcus pyogenes IFO 3340; assay: Antibacterial activity, agar-dilution MIC, organism No. 26; details: Streptococcus pyogenes, IFO3340; Organism No. 26, bouillon-agar; read-out: Minimum Inhibitory Concentration
Summary of the method: as §1

Enterobacter cloacae 963 = assay: Antibacterial activity, agar-dilution MIC, organism No. 24; details: Enterobacter cloacae, 963; Organism No. 24, bouillon-agar; read-out: Minimum Inhibitory Concentration
Summary of the method: as §1

[23] = system: Streptococcus pyogenes Cook; assay: Antibacterial activity, agar-dilution MIC, organism No. 4; details: Streptococcus pyogenes; Organism No. 4, bouillon-agar; read-out: Minimum Inhibitory Concentration
Summary of the method: as §1

[24] = system: Escherichia coli NIHJ-JC-2; assay: Antibacterial activity, agar-dilution MIC, organism No. 5; details: Escherichia coli, NIHJJC2; Organism No. 5, bouillon-agar; read-out: Minimum Inhibitory Concentration
Summary of the method: as §1

[25] = system: Candida albicans IAM 4905; assay: Antifungal activity, agar-dilution MIC, organism No. 29; details: Candida albicans, IAM4905; Organism No. 29, bouillon-agar; read-out: Minimum Inhibitory Concentration
Summary of the method: as §1

[26] = system: Salmonella enteritidis G 14; assay: Antibacterial activity, agar-dilution MIC, organism No. 12; details: Salmonella enterica, ENTERITIDIS; Organism No. 12, bouillon-agar; read-out: Minimum Inhibitory Concentration
Summary of the method: as §1

[C-]#[N+]C12CC3(/C=C/C(=O)Nc4cccc(O)c4)OC3C1O2 (stereo not drawn) [compound 57]
MIC [1]: 6.25 µg/mL (≈ 22 µM) | MIC [2]: 3.13 µg/mL (≈ 11 µM) | MIC [3]: 6.25 µg/mL (≈ 22 µM) | MIC [4]: 1.56 µg/mL (≈ 5.49 µM) | MIC [5]: 12.5 µg/mL (≈ 44 µM) | MIC [6]: > 200 µg/mL | MIC [7]: 25 µg/mL (≈ 87.9 µM) | MIC [8]: 12.5 µg/mL (≈ 44 µM) | MIC [9]: 1.56 µg/mL (≈ 5.49 µM) | MIC [10]: 50 µg/mL (≈ 176 µM) | MIC [11]: 6.25 µg/mL (≈ 22 µM) | MIC [12]: < 0.2 µg/mL | MIC [13]: 3.13 µg/mL (≈ 11 µM) | MIC [14]: 1.56 µg/mL (≈ 5.49 µM) | MIC [15]: > 200 µg/mL | MIC [16]: 1.56 µg/mL (≈ 5.49 µM) | MIC [17]: 1.56 µg/mL (≈ 5.49 µM) | MIC (Proteus vulgaris OX-19): 1.56 µg/mL (≈ 5.49 µM) | MIC [18]: > 200 µg/mL | MIC (Salmonella typhi 901): 3.13 µg/mL (≈ 11 µM) | MIC [19]: > 200 µg/mL | MIC [20]: 0.1 µg/mL (≈ 0.352 µM) | MIC [21]: 12.5 µg/mL (≈ 44 µM) | MIC (Proteus vulgaris HX-19): 0.78 µg/mL (≈ 2.74 µM) | MIC [22]: 3.13 µg/mL (≈ 11 µM) | MIC (Enterobacter cloacae 963): 100 µg/mL (≈ 352 µM) | MIC [23]: 12.5 µg/mL (≈ 44 µM) | MIC [24]: 12.5 µg/mL (≈ 44 µM) | MIC [25]: 50 µg/mL (≈ 176 µM) | MIC [26]: 3.13 µg/mL (≈ 11 µM)

[C-]#[N+]C12CC3(/C=C/C(=O)Nc4ccccc4O)OC3C1O2 (stereo not drawn) [compound 58]
MIC [1]: 12.5 µg/mL (≈ 44 µM) | MIC [2]: 1.56 µg/mL (≈ 5.49 µM) | MIC [3]: 12.5 µg/mL (≈ 44 µM) | MIC [4]: 1.56 µg/mL (≈ 5.49 µM) | MIC [5]: 12.5 µg/mL (≈ 44 µM) | MIC [6]: > 200 µg/mL | MIC [7]: 12.5 µg/mL (≈ 44 µM) | MIC [8]: 6.25 µg/mL (≈ 22 µM) | MIC [9]: 1.56 µg/mL (≈ 5.49 µM) | MIC [10]: 12.5 µg/mL (≈ 44 µM) | MIC [11]: 3.13 µg/mL (≈ 11 µM) | MIC [12]: < 0.2 µg/mL | MIC [13]: 1.56 µg/mL (≈ 5.49 µM) | MIC [14]: 3.13 µg/mL (≈ 11 µM) | MIC [15]: > 200 µg/mL | MIC [16]: 0.78 µg/mL (≈ 2.74 µM) | MIC [17]: 3.13 µg/mL (≈ 11 µM) | MIC (Proteus vulgaris OX-19): 0.78 µg/mL (≈ 2.74 µM) | MIC [18]: > 200 µg/mL | MIC (Salmonella typhi 901): 3.13 µg/mL (≈ 11 µM) | MIC [19]: > 200 µg/mL | MIC [20]: 0.2 µg/mL (≈ 0.704 µM) | MIC [21]: 12.5 µg/mL (≈ 44 µM) | MIC (Proteus vulgaris HX-19): 0.78 µg/mL (≈ 2.74 µM) | MIC [22]: 3.13 µg/mL (≈ 11 µM) | MIC (Enterobacter cloacae 963): 100 µg/mL (≈ 352 µM) | MIC [23]: 12.5 µg/mL (≈ 44 µM) | MIC [24]: 12.5 µg/mL (≈ 44 µM) | MIC [25]: 12.5 µg/mL (≈ 44 µM) | MIC [26]: 3.13 µg/mL (≈ 11 µM)

Source: patent US4684664A, “Derivatives of β-(4-isocyano-1,2,3,4-diepoxycyclopentyl) acrylic acid” (Kureha Kagaku Kogyo Kabushiki Kaisha, priority 1984, dated 1987)
